According to patent US9586943B2, “Bilaterally-substituted tricyclic compounds for the treatment of human immunodeficiency virus type-1 (HIV-1) infection and other diseases” (CENTRO DE INVESTIGACIÓN PRINCIPE FELIPE, priority 2013, dated 2017):
Read-outs that look alike come from different tables or passages of the source. Numbered stars: 1 amine (or outer) side, 2 acyl side, 3 side chain; on linkers, the order of the positions; unused ones are H or OH. Suc = O=C(CCC(=O)[*:2])[*:1]

What was measured:
[1] = tested on: HIV-1 (NL4.3-Ren); test: microbe, parasite or virus in culture; type: cell-based; conditions: for EC50: Human immunodeficiency virus 1, 48 h, read-out: EC50 (NL4.3-Ren)
[2] = molecular target: RRE RNA hairpin (internal loop IIB); test: SPR analysis of interaction with RRE RNA hairpin; type: binding, HIV-1
[3] = tested on: Staphilococcus aureus (ATCC 35556); test: Disk diffusion assay (Kirby-Bauer), S. aureus; type: cell-based; conditions: disk potency 20 μg, 8 mm discs, 16-18 hours at 37° C.
[4] = molecular target: RRE-Rev34-50 interaction (RRE hairpin and frevp); test: Fluorescence polarization displacement assay of the RRE-Rev34-50 interaction; type: binding, HIV-1
[5] = Cellular viability (CellTiter Glo); type: cell-based; conditions: human, MT-2 cells; 48 h, CellTiter Glo; read-out: CC50 (celular viability)
[6] = tested on: Escherichia coli (ATCC 53868); test: Disk diffusion assay (Kirby-Bauer), E. coli; type: cell-based; conditions: disk potency 20 μg, 8 mm discs, 16-18 hours at 37° C.
[7] = tested on: RRE hairpin; test: Two-dimensional NMR (TOCSY) titration of the RRE hairpin; type: binding, HIV-1; conditions: D2O, pH 6.0
[8] = molecular target: TARc hairpin; test: SPR binding specificity relative to control TARc hairpin; set-up: species or system HIV-1
Description: (§1) The interaction of these biphenyl and terphenyl compounds with the RRE RNA hairpin (SEQ. ID. No 1) was analysed using surface plasmon resonance (SPR) experiments(19). In addition to the RRE, two control RREc (SEQ. ID. No 2) and TARc (SEQ. ID. No 3) hairpins were also immobilised on the chips. In the RREc hairpin the internal loop forming the Rev high-affinity binding site is replaced with a G:G opposition, whereas in the TARc hairpin this loop is substituted with the HIV-1 Tat-binding UCU bulge(20). In this way, applicants could simultaneously assess the interaction of each ligand with RRE, RREc and TARc, obtaining important information about binding selectivity. In addition, the SPR methodology allows deduction of binding stoichiometries, which are likewise related to the specificity of the interaction between a ligand and a given RNA species. These are key considerations in the nucleic acid recognition field(4, 5, 14).
(§2) The Surface Plasmon Resonance (SPR) experiments were carried out at 25° C. with a Biacore T100 optical biosensor system, 4-channel streptavidin-derivatized Series S SA chips, and either 10 mM MES (pH 6.25), 150 mM NaCl, 1 mM EDTA and 0.005% P20 or 10 mM HEPES pH 7.4, 150 mM NaCl, 3 mM EDTA and 0.005% P20 aqueous solutions as mobile phases. After immobilizing approximately 300 response units (RU) of the RRE, RREc and TARc RNA hairpins on the chips, the compounds were injected during 10-minute periods at a flow rate of 20 μL/min and at concentrations generally ranging from 0.01 μM to 100.0 μM, and then allowed to dissociate for 10 more minutes. The RNA surfaces were regenerated with solutions containing 0.5 to 1 M NaCl and 10 to 100 mM NaOH, depending on the ligand.
(§3) RNA-ligand SPR equilibrium dissociation constants (Kd) were determined by fitting the sensorgrams to one-site or two-site equations:
[formula] [formula] where RU is the response in the steady-state region of the sensorgrams, C is the concentration of free compound in equilibrium with the complex, RUmax is the maximum response and RI is an offset term accounting for the bulk refractive index contribution of the sample. In these models, Kd, RUmax and RI are adjustable parameters, and the stoichiometry of each binding site was determined by comparing the fitted RUmax values with the predicted ones, calculated from the molecular weights of RNA and compound and the amount of RNA in the flow cell(32). The two-site equation was only utilized if it provided a clear curve-fitting improvement over the one-site model. […] All SPR experiments were double-referenced(33).

[9] = molecular target: RREc hairpin; test: SPR binding specificity relative to control RREc hairpin; set-up: species or system HIV-1
Description: as §1, §2, §3
[formula] [formula] where RU is the response in the steady-state region of the sensorgrams, C is the concentration of free compound in equilibrium with the complex, RUmax is the maximum response and RI is an offset term accounting for the bulk refractive index contribution of the sample. In these models, Kd, RUmax and RI are adjustable parameters, and the stoichiometry of each binding site was determined by comparing the fitted RUmax values with the predicted ones, calculated from the molecular weights of RNA and compound and the amount of RNA in the flow cell(32). The two-site equation was only utilized if it provided a clear curve-fitting improvement over the one-site model. The specificity of the RRE interaction was quantified by calculating the Kd(RREc)/Kd(RRE) and […] ratios. All SPR experiments were double-referenced(33).

[10] = tested on: MT-2 cells; test: Cellular viability (CellTiter Glo); type: cell-based
[11] = 25° C., pH 6.3, high affinity site when two-site model, JB-399 and IIS-530: ligand range 0.1-25 μM, read-out: Kd(RRE)
[12] = read-out: IC50 (RRE-Rev 50% inhibitory concentration), fluorescence polarization, 25° C., 60 nM RRE and 10 nM frevp
[13] = 25° C., pH 7.4, high affinity site when two-site model, footnote d compounds: ligand range 0.1-25 μM, read-out: Kd(RRE)

## COc1cc(CCN)c(-c2c(CCN)cc(OC)cc2CCN)c(CCN)c1 [SC-30, 2,2′,2″,2′″-(4,4′-dimethoxy-[1,1′-biphenyl]-2,2′,6,6′-tetrayl)tetraethanamine]
[1]
  EC50: 50 to 100 µM
[2]; [11]
  Kd: > 100 µM
[3]
  disk susceptibility of S. aureus (diameter of the inhibition area): inactive
[4]; [12]
  IC50: 309 ± 68.9 µM
[5]
  CC50 at 48 h: > 100 µM
[6]
  disk susceptibility of E. coli (diameter of the inhibition area): inactive
[7]
  RRE interaction by NMR chemical shift perturbation (in words): unspecific

## CC1(C)S[C@@H]2[C@H](NC(=O)[C@H](N)c3ccccc3)C(=O)N2[C@H]1C(=O)O [Ampicillin, ampicillin]
[3]
  disk susceptibility of S. aureus (diameter of the inhibition area): 38.1 ± 1.6
[6]
  disk susceptibility of E. coli (diameter of the inhibition area): 25.6 ± 1.7

## COc1cc(CCN)c(-c2cc(CCN)c(O)c(CCN)c2)c(CCN)c1 [JB-398, 2′,3,5,6′-tetrakis(2-aminoethyl)-4′-methoxy-[1,1′-biphenyl]-4-ol]
[1]
  EC50: > 100 µM
[2]; [11]
  Kd: 31.1 ± 5 µM
[8]; 25° C., pH 6.3
  Kd(TARc)/Kd(RRE): 3.7
[4]; fluorescence anisotropy, read-out: IC50 (RRE-Rev34-50 inhibition)
  IC50: 22.1 µM
[5]
  CC50 at 48 h: > 100 µM
[7]
  RRE interaction by NMR chemical shift perturbation (in words): weak

## NC[C@H]1O[C@H](O[C@H]2[C@H](O)[C@@H](O[C@H]3O[C@H](CO)[C@@H](O)[C@H](N)[C@H]3O)[C@H](N)C[C@@H]2N)[C@H](N)[C@@H](O)[C@@H]1O [Kanamycin B, kanamycin B]
[3]
  disk susceptibility of S. aureus (diameter of the inhibition area): 16.7 ± 1.2
[6]
  disk susceptibility of E. coli (diameter of the inhibition area): 20.0 ± 2.1

## succynyl-TRQARRNRRRRWRERQRAAAAR-amide (Suc-TRQARRNRRRRWRERQRAAAAR-NH2; SMILES C[C@H](NC(=O)[C@H](C)NC(=O)[C@H](C)NC(=O)[C@H](CCCNC(=N)N)NC(=O)[C@H](CCC(N)=O)NC(=O)[C@H](CCCNC(=N)N)NC(=O)[C@H](CCC(=O)O)NC(=O)[C@H](CCCNC(=N)N)NC(=O)[C@H](Cc1c[nH]c2ccccc12)NC(=O)[C@H](CCCNC(=N)N)NC(=O)[C@H](CCCNC(=N)N)NC(=O)[C@H](CCCNC(=N)N)NC(=O)[C@H](CCCNC(=N)N)NC(=O)[C@H](CC(N)=O)NC(=O)[C@H](CCCNC(=N)N)NC(=O)[C@H](CCCNC(=N)N)NC(=O)[C@H](C)NC(=O)[C@H](CCC(N)=O)NC(=O)[C@H](CCCNC(=N)N)NC(=O)[C@@H](NC(=O)CCC(=O)O)[C@@H](C)O)C(=O)N[C@@H](C)C(=O)N[C@@H](CCCNC(=N)N)C(N)=O) [revp, reference compound]
[2]; one-site model, read-out: equilibrium dissociation constant Kd (RRE)
  Kd: 0.0042 ± 0.0034 µM
[8]
  Kd(TARc)/Kd(RRE): 4.4
[4]; calculated from IC50, read-out: Ki inhibition constant
  Ki: 0.0041 ± 0.0008 µM
[9]
  Kd(RREc)/Kd(RRE): 14.5

## CCc1cc(-c2c(CCN)cc(OC)cc2CCN)cc(CC)c1-c1cc(CCN)c(O)c(CCN)c1 [IIS-806, 2″,3,5,6″-Tetrakis(2-aminoethyl)-2′,6′-diethyl-4″-methoxy-(1,1′:4′,1″-terphenyl)-4-ol chlorhydrate]
[1]
  inhibition of HIV-1 replication (in words): inhibited HIV-1 replication
  EC50: 64.1 µM
[2]; [13]
  Kd: 8.1 ± 1.1 µM
[8]; 25° C., pH 7.4
  Kd(TARc)/Kd(RRE): 1.3
[4]; [12]
  IC50: 56.4 ± 13.5 µM
[9]; 25° C., pH 7.4
  Kd(RREc)/Kd(RRE): 1.1
[5]
  CC50 at 48 h: > 100 µM
[10]
  cellular toxicity (in words): no cellular toxicity
[7]
  RRE interaction by NMR chemical shift perturbation (in words): greatest RNA chemical shift variations

## CCc1cc(-c2c(CCN)cc(OC)cc2CCN)ccc1-c1cc(CCN)c(O)c(CCN)c1 [IIS-792, 2″,3,5,6″-tetrakis(2-aminoethyl)-2′-ethyl-4″-methoxy-[1,1′:4′,1″-terphenyl]-4-ol]
[1]
  inhibition of HIV-1 replication (in words): inhibited HIV-1 replication
  EC50: 46.3 µM
[2]; [13]
  Kd: 8.1 ± 1.8 µM
[8]; 25° C., pH 7.4
  Kd(TARc)/Kd(RRE): 1.6
[4]; [12]
  IC50: 93.6 ± 24.4 µM
[9]; 25° C., pH 7.4
  Kd(RREc)/Kd(RRE): 1.2
[5]
  CC50 at 48 h: > 100 µM
[10]
  cellular toxicity (in words): no cellular toxicity

## NC[C@H]1O[C@H](O[C@H]2[C@H](O)[C@@H](O[C@H]3O[C@H](CO)[C@@H](O)[C@H](N)[C@H]3O)[C@H](N)C[C@@H]2N)[C@H](O)[C@@H](O)[C@@H]1O [Kanamycin A, kanamycin A]
[3]
  disk susceptibility of S. aureus (diameter of the inhibition area): 16.5 ± 1.1
[6]
  disk susceptibility of E. coli (diameter of the inhibition area): 22.0 ± 2.0

## COc1cc(CCN)c(-c2ccc(-c3cc(CCN)c(OCC4CCCCC4)c(CCN)c3)c(OC)c2)c(CCN)c1 [IIS-530, 2,2′,2″,2′″-(4″-(cyclohexylmethoxy)-3′,4-dimethoxy-[1,1′:4′,1″-terphenyl]-2,3″,5″,6-tetrayl)tetraethanamine]
[1]
  EC50: > 100 µM
[2]; [11]
  Kd: 46.2 ± 32 µM
[8]; 25° C., pH 6.3
  Kd(TARc)/Kd(RRE): 4.0
[4]; [12]
  IC50: 75.5 ± 39.9 µM
[9]; 25° C., pH 6.3
  Kd(RREc)/Kd(RRE): 1.3
[5]
  CC50 at 48 h: > 100 µM

## COc1cc(CCN)c(-c2ccc(-c3cc(CCN)c(OCc4ccc(C(F)(F)F)cc4)c(CCN)c3)c(OC)c2)c(CCN)c1 [IIS-478, 2,2′,2″,2′″-(3′,4-dimethoxy-4″-((4-(trifluoromethyl)benzyl)oxy)-[1,1′:4′,1″-terphenyl]-2,3″,5″,6-tetrayl)tetraethanamine]
[1]
  EC50: > 100 µM
[2]; [13]
  Kd: 14 ± 5.1 µM
[8]; 25° C., pH 7.4
  Kd(TARc)/Kd(RRE): 9.6
[3]
  disk susceptibility of S. aureus (diameter of the inhibition area): inactive
[4]; [12]
  IC50: 232 ± 32.7 µM
[9]; 25° C., pH 7.4
  Kd(RREc)/Kd(RRE): 10.3
[5]
  CC50 at 48 h: > 100 µM
[6]
  disk susceptibility of E. coli (diameter of the inhibition area): inactive

## COc1cc(CCN)c(-c2ccc(-c3cc(CCN)c(OCc4ccccc4)c(CCN)c3)c(OC)c2)c(CCN)c1 [IIS-311, 2,2′,2″,2′″-(4″-(benzyloxy)-3′,4-dimethoxy-[1,1′:4′,1″-terphenyl]-2,3″,5″,6-tetrayl)tetraethanamine]
[1]
  EC50: > 100 µM
[2]; [11]
  Kd: 9.4 ± 5.7 µM
[8]; 25° C., pH 6.3
  Kd(TARc)/Kd(RRE): 3.2
[4]; [12]
  IC50: 162 ± 118 µM
[9]; 25° C., pH 6.3
  Kd(RREc)/Kd(RRE): 4.9
[5]
  CC50 at 48 h: > 100 µM

## NC[C@H]1O[C@H](O[C@H]2[C@H](O)[C@@H](O[C@H]3O[C@H](CO)[C@@H](O)[C@H](N)[C@H]3O)[C@H](N)C[C@@H]2N)[C@H](N)C[C@@H]1O [Tobramycin, tobramycin]
[3]
  disk susceptibility of S. aureus (diameter of the inhibition area): 17.6 ± 0.8
[6]
  disk susceptibility of E. coli (diameter of the inhibition area): 18.8 ± 2.2

## COc1cc(CCN)c(-c2ccc(-c3cc(CCN)c(O)c(CCN)c3)cc2)c(CCN)c1 [JB-399, 2″,3,5,6″-tetrakis(2-aminoethyl)-4″-methoxy-[1,1′:4′,1″-terphenyl]-4-ol]
[1]
  EC50: > 100 µM
[2]; [11]
  Kd: 14.4 ± 6.8 µM
[8]; 25° C., pH 6.3
  Kd(TARc)/Kd(RRE): 11.7
[4]; [12]
  IC50: 23.4 ± 3.6 µM
[5]
  CC50 at 48 h: > 100 µM
